Assay [1] has as its system C57BL/6 mice immunized with hen egg lysozyme. Put plainly: T Cell In Vivo Functional Assay (HEL immunization, ex vivo recall). The arrangement: species or system mouse. The following applies: 200 mg/kg oral twice a day, 7 days; relative to vehicle. On the procedure: To determine the effect of compounds of Formula I on T cell responses, the following experiment was conducted. On Day O, C57BL/6 (Jackson Laboratories #000664, 6-8 weeks of age) were immunized at the base of the tail with 100 μg of hen egg lysozyme (HEL; Sigma #L7773) with complete Freund's adjuvant (CFA; Sigma #F5881). Starting on Day 0 and continuing until Day 7, mice were dosed twice a day by oral administration with vehicle (water) or the compound of Example 26 (200 mg/kg). On Day 7, opopiteal lymph nodes were removed, single cell suspensions were prepared and 500,000 cells in 200 μL were activated in 96 well plates with the indicated dose of HEL peptide. Following incubation for 72 hours at 37° C., 5% CO2, supernatants were harvested for IFNγ ELISA (R&D Systems catalog #MIF00) and proliferation was assessed using the CellTitre-Glo™ luminescent assay (Promega, Catalog #G7571) with both assays performed according to the manufacturer's protocol. ELISA plates were quantified relative to a standard curve using Molecular Devices Versamax Reader at […] and Softmax Pro software; proliferation was quantitated on a Packard TopCount instrument using luminescence protocol and data was analyzed using excel software.

The subject of assay [2] is C.B17/Icr-Prkdc^scid/IcrIcoCrl mice, adoptive transfer model of IBD. Put plainly: CD4+CD45RBhi Adoptive Transfer Inflammatory Bowel Disease. The class given is in vivo, mouse. As to conditions: 200 mg/kg oral twice daily, 21 days of treatment. The method, then:
On Day 0, CD4+ T cells were isolated from the spleens of female Balb/cAnNCrl mice (Charles River Laboratories; 12 weeks old) as described in Example E. The resulting cells were labeled with fluorescent antibodies against CD4 and CD45 markers and were sorted by flow cytometry for CD4+CD45RBhi cells based on fluorescence. 400,000 CD4+CD45RBhi cells were then injected intraperitoneally into C.B17/Icr-Prkdc^scid/IcrIcoCrl mice (Charles River Laboratories strain code 236; 12 weeks old). This injection of cells is known to those skilled in the art as adoptive transfer. […]
For each H&E stained section, submucosal edema was quantitated by measuring the distance from the muscularis mucosa to the internal border of the outer muscle layer in a non-tangential area thought to most representative the severity of this change. Mucosal thickness was also measured in a non-tangential area of the section that best represented the overall mucosal thickness. […]
The parameters reflecting epithelial cell loss/damage were scored individually using a % area involved scoring method: […]
The three scored parameters (inflammation, glandular epithelial loss, and erosion) were ultimately summed to arrive at a sum of histopathology scores, which indicates the overall damage and would have a maximum score of 15.

Structures can show the parent of a compound that is named as a salt.

Take `F[C@@H]1CNCCC1Oc1cccc2ccc(-c3nnc4ccccn34)nc12` (stereo in doubt) [Example 26, 2-([1,2,4]triazolo[4,3-a]pyridin-3-yl)-8-((cis)-3-fluoropiperidin-4-yloxy)quinoline dihydrochloride]: in assay [1], the “ex vivo HEL-specific proliferation” value is “decreased” and the “ex vivo IFNγ production” value is “decreased”. For the same molecule, in assay [2], the “colon histopathology scores (inflammation, gland loss, erosion)” value is “reduced severity of disease” and the “decrease in mucosal thickening relative to vehicle” value was determined as 84%.

The values above are taken from patent US8575145B2, “Triazolopyridine compounds as PIM kinase inhibitors” (Array BioPharma Inc., priority 2008, dated 2013).
